Results published in patent US7473698B2, “Secondary amino anilinic piperidines as MCH1 antagonists and uses thereof” (H. Lunbeck A/S, priority 2003, dated 2009).

What was measured:
rat MCH-1 [1] = target: T1, rat MCH-1 (Rattus norvegicus, UniProt P97639); test: Radioligand binding assay at cloned rat MCH1 receptor, [3H]Compound A, Peakr293 cell membranes; set-up: expressed in transfected cells; host or cells: Human embryonic kidney Peak rapid 293 cells (Peakr293), transient, calcium phosphate; membranes; conditions: 0.08 nM [3H]Compound A, 25° C., 90 minutes
T1 sequence (P97639 whole entry): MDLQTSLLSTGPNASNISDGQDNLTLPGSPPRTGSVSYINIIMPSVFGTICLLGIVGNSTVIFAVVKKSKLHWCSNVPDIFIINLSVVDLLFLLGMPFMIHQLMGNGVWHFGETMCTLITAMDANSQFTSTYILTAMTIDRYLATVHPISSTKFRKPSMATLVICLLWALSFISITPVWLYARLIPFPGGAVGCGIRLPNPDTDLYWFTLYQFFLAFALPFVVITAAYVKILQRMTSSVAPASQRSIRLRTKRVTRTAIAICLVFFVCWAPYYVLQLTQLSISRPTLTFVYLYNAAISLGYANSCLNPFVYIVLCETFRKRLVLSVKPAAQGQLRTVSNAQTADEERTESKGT
Method: For binding assays, pellets of transfected cells are suspended in ice-cold buffer (20 mM Tris.HCl, 5 mM EDTA, pH 7.4) and homogenized by sonication for 7 sec. The cell lysates are centrifuged at 200×g for 5 min at 4° C. The supernatants are then centrifuged at 40,000×g for 20 min at 4° C. The resulting pellets are washed once in the homogenization buffer and suspended in binding buffer (see methods for radioligand binding). Protein concentrations are determined by the method of Bradford (1976) using bovine serum albumin as the standard. Binding assays are usually performed immediately, however it is possible to prepare membranes in batch and store frozen in liquid nitrogen for future use.
Radioligand binding assays for the rat MCH1 receptor were carried out using plasmid pcDNA3.1-rMCH1-f (ATCC Patent Deposit Designation No. PTA-3505). Plasmid pcDNA3.1-rMCH1-f comprises the regulatory elements necessary for expression of DNA in a mammalian cell operatively linked to DNA encoding the rat MCH1 receptor so as to permit expression thereof. Plasmid pcDNA3.1-rMCH1-f was deposited on Jul. 5, 2001, with the American Type Culture Collection (ATCC), 12301 Parklawn Drive, Rockville, Md. 20852, U.S.A. under the provisions of the Budapest Treaty for the International Recognition of the Deposit of Microorganisms for the Purposes of Patent Procedure and was accorded ATCC Patent Deposit Designation No. PTA-3505.
Human embryonic kidney Peak rapid 293 cells (Peakr293 cells) were transiently transfected with DNA encoding the MCH1 receptor utilizing the calcium phosphate method and cell membranes were prepared as described above. Binding experiments with membranes from Peakr293 cells transfected with the rat MCH1 receptor were performed with 0.08 nM [^3H]Compound A (custom labeled by Amersham) (the synthesis of Compound A is described in detail below) using an incubation buffer consisting of 50 mM Tris pH 7.4, 10 mM MgCl2, 0.16 mM PMSF, 1 mM 1,10 phenantroline and 0.2% BSA. Binding was performed at 25° C. for 90 minutes. Incubations were terminated by rapid vacuum filtration over GF/C glass fiber filters, presoaked in 5% PEI using […] Tris pH 7.4 as wash buffer. In all experiments, nonspecific binding is defined using […] Compound A.
The compounds described above were assayed using cloned rat MCH1.

rat MCH-1 [2] = target: T1, rat MCH-1; conditions: one range printed for rat and human; cited from earlier work
MCH-1 receptor = MCH-1 receptor (Rattus norvegicus, UniProt P97639); conditions: in vivo; cited from earlier work
MCH-1 receptor, sequence (P97639 whole entry): as above

human MCH-1 = human MCH-1 (Homo sapiens, UniProt Q99705); conditions: one range printed for rat and human; cited from earlier work
human MCH-1, sequence (Q99705 whole entry): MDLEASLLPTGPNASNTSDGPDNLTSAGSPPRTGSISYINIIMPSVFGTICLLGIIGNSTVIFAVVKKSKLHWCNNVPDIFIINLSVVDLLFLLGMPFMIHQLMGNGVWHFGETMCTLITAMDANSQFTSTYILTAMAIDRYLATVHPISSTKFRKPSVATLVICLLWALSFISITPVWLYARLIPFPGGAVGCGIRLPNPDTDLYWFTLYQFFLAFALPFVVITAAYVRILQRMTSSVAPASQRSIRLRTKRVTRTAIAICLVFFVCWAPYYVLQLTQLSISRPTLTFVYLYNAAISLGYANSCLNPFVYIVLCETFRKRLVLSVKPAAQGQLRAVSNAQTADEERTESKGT

G4F-7 cells = conditions: cited from earlier work

| Compound | Ki (rat MCH-1 [1]) [nM] | also measured |
| --- | --- | --- |
| COc1ccccc1CCCCC(=O)Nc1cccc(C2CCNCC2)c1 [Example 1, 5-(2-Methoxyphenyl)-N-[3-(4-Piperidinyl)Phenyl]Pentanamide] | 79.6 | – |
| O=C(CCCCc1ccccc1)Nc1cccc(C2CCNCC2)c1 [Example 2, 5-Phenyl-N-[3-(4-Piperidinyl)Phenyl]Pentanamide] | 197 | – |
| O=C(CCCCC(=O)c1ccccc1)Nc1cccc(C2CCNCC2)c1 [Example 3, 6-Oxo-6-Phenyl-N-[3-(4-Piperidinyl)Phenyl]Hexanamide] | 1100 | – |
| O=C(Nc1cccc(C2CCNCC2)c1)c1cccnc1Oc1ccccc1 [Example 4, 2-Phenoxy-N-[3-(4-Piperidinyl) Phenyl]Nicotinamide] | 353 | – |
| COc1ccc(CCCCC(=O)Nc2cccc(C3CCNCC3)c2)cc1 [Example 5, 5-(4-Methoxyphenyl)-N-[3-(4-Piperidinyl)Phenyl]Pentanamide] | 476 | – |
| O=C(CCCCCNc1ccc(F)c(F)c1)Nc1cccc(C2CCNCC2)c1 [Example 6, 6-(3,4-Difluoroanilino)-N-[3-(4-Piperidinyl) Phenyl]Hexanamide] | 438 | – |
| COC(=O)C1=C(C)NC(=O)N(C(=O)NCCCC(=O)Nc2cccc(C3CCNCC3)c2)C1c1ccc(F)cc1 (centres unmarked) [Example 7, Methyl 4-(4-Fluorophenyl)-6-Methyl-2-Oxo-3-[({4-OXO-4-[3-(4-Piperidinyl)Anilino]Butyl}Amino)Carbonyl]-1,2,3,4-Tetrahydro-5-Pyrimidinecarboxylate] | 142 | – |
| O=C(CCCCC(=O)c1ccccc1)Nc1cc(C2CCNCC2)ccc1F [Example 9, N-[2-Fluoro-5-(4-Piperidinyl) Phenyl]-6-Oxo-6-Phenylhexanamide] | 313 | – |
| COc1ccccc1CCCCC(=O)Nc1cc(C2CCNCC2)ccc1F [Example 10, N-[2-Fluoro-5-(4-Piperidinyl)Phenyl]-5-(2-Methoxyphenyl)Pentanamide] | 20.9 | – |
| COc1ccccc1CCCCC(=O)Nc1cc(C2CCNCC2)c(F)cc1F [Example 11, N-[2,4-Difluoro-5-(4-Piperidinyl)Phenyl]-5-(2-Methoxyphenyl)Pentanamide] | 46.6 | – |
| O=C(CCc1ccc(Oc2ccc(F)c(F)c2)cc1)Nc1cc(C2CCNCC2)ccc1F [Example 12, 3-[4-(3,4-Difluorophenoxy)Phenyl]-N-[2-Fluoro-5-(4-Piperidinyl)Phenyl]Propanamide] | 33.8 | – |
| CN(C)CC1CCc2cc(NC(=O)c3ccc(-c4ccc(F)cc4)cc3)ccc2C1 (centres unmarked) [Example T-226296] | – | affinity for the MCH-1 receptor (rat MCH-1 [2]): 5 to 9 nM; food intake induced by the intracerebroventricular application of MCH (MCH-1 receptor): inhibit food intake; affinity for the MCH-1 receptor (human MCH-1): 5 to 9 nM |
| [Phe^13,Tyr^19]-MCH | – | Kd (G4F-7 cells; radioiodinated ligand, G4F-7 cells): 0.118 nM |
| native MCH: Melanin-concentrating hormone, a cyclic peptide | – | Ki (G4F-7 cells; inhibition of radioiodinated [Phe13,Tyr19]-MCH binding): 12 nM |
| α-MSH | – | inhibition of binding (G4F-7 cells; inhibition of radioiodinated [Phe13,Tyr19]-MCH binding, in words): not inhibited |
